From patent publication US10487093B2, “Heterocyclic compounds, in particular 2-oxo-4,4,5,5,6,6,7,7-octahydrobenzoxazole derivatives, and their use as antibacterial compounds” (priority 2016, dated 2019)

What was measured:
[1] = tested on: Enterobacter cloacae NCTC 13406; experiment: MIC, broth microdilution (CLSI) versus planktonic bacteria; format: cell-based; conditions: NCTC13406; Enterobacter cloacae NCTC 13406; 16-20 h; mode of three independent experiments; read-out: MIC, Ecl NCTC 13406
[2] = tested on: Acinetobacter baumannii ATCC 19606; experiment: as above; format: cell-based; conditions: ATCC19606; Acinetobacter baumannii ATCC 19606; 16-20 h; mode of three independent experiments; read-out: MIC, Ab ATCC 19606
[3] = tested on: Pseudomonas aeruginosa ATCC 27853; experiment: as above; format: cell-based; conditions: ATCC27853; Pseudomonas aeruginosa ATCC 27853; 16-20 h; mode of three independent experiments; read-out: MIC, Pa ATCC 27853
[4] = tested on: Enterococcus faecalis ATCC 29212; experiment: as above; format: cell-based; conditions: ATCC29212, 16-20 h, mode of three independent experiments, read-out: MIC, Ef ATCC 29212
[5] = tested on: Haemophilus influenzae ATCC 49247; experiment: as above; format: cell-based; conditions: ATCC49247; Haemophilus influenzae ATCC 49247; 16-20 h; mode of three independent experiments; read-out: MIC, Hi ATCC 49247
[6] = tested on: Acinetobacter baumannii NCTC 13420; experiment: as above; format: cell-based; conditions: NCTC13420; Acinetobacter baumannii NCTC 13420; 16-20 h; mode of three independent experiments; read-out: MIC, Ab NCTC 13420
[7] = tested on: Escherichia coli ATCC 25922; experiment: as above; format: cell-based; conditions: ATCC25922; Escherichia coli ATCC 25922; 16-20 h; mode of three independent experiments; read-out: MIC, Ec ATCC 25922
[8] = tested on: human hepatic cell line (HepG2 ATCC HB-8065); experiment: Human cell viability assay (CellTiter-Glo); conditions: Homo sapiens, HepG2, 24 h, read-out: IC50 (μg/mL) HepG2
[9] = tested on: Staphylococcus aureus ATCC 29213; experiment: MIC, broth microdilution (CLSI) versus planktonic bacteria; format: cell-based; conditions: ATCC29213; Staphylococcus aureus ATCC 29213; 16-20 h; mode of three independent experiments; read-out: MIC, Sa ATCC 29213
E. coli MG1655 D87G = format: cell-based, Escherichia coli; conditions: compared to the isogenic parent strain E. coli MG1655; D87G mutation on DNA gyrase subunit GyrA
E. coli MG1655 S83L = format: cell-based, Escherichia coli; conditions: compared to the isogenic parent strain E. coli MG1655; S83L mutation on DNA gyrase subunit GyrA
E. coli ATCC BAA-2452 = experiment: MIC, broth microdilution (CLSI) versus planktonic bacteria; format: cell-based; conditions: Escherichia coli ATCC BAA-2452; 16-20 h; mode of three independent experiments; read-out: MIC, Ec ATCC BAA 2452
E. coli NCTC 13476 = experiment: as above; format: cell-based; conditions: NCTC13476; Escherichia coli NCTC 13476; 16-20 h; mode of three independent experiments; read-out: MIC, Ec NCTC 13476
[10] = tested on: Streptococcus pneumoniae ATCC 49619; experiment: as above; format: cell-based; conditions: ATCC49619; Streptococcus pneumoniae ATCC 49619; 16-20 h; mode of three independent experiments; read-out: MIC, Sp ATCC 49619
E. coli MG1655 = experiment: as above; format: cell-based, Escherichia coli; conditions: Escherichia coli, MG1655, read-out: MIC, Ec MG1655 WT

NCCCOc1ccc2ccc(=O)n(CCN[C@@H]3CC[C@@H]4[C@@H](C3)OC(=O)N4c3ccc4c(n3)NC(=O)CO4)c2c1 [Compound 3, 1-(2-{[(3aR,6R,7aR)-2-oxo-3-{3-oxo-2H,3H,4H-pyrido[3,2-b][1,4]oxazin-6-yl}-octahydro-1,3-benzoxazol-6-yl]amino}ethyl)-7-(3-aminopropoxy)-1,2-dihydroquinolin-2-one]
> 100 µg/mL: MIC [2] | IC50 [8]
< 1 µg/mL: MIC [4] | MIC [9]
10 to 100 µg/mL: MIC [1] | MIC [5] | MIC [6]
1 to 10 µg/mL: MIC [3] | MIC [7]

COc1cnnc(-c2cccc(CN[C@@H]3CC[C@@H]4[C@@H](C3)OC(=O)N4c3ccc4c(n3)NC(=O)CO4)c2O)c1 [Compound 72, (3aR,6R,7aR)-6-({[2-hydroxy-3-(5-methoxypyridazin-3-yl)phenyl]methyl}amino)-3-{3-oxo-2H,3H,4H-pyrido[3,2-b][1,4]oxazin-6-yl}-octahydro-1,3-benzoxazol-2-one]
0.5 fold: Fold increase in MIC, E. coli MG1655 D87G (E. coli MG1655 D87G) | Fold increase in MIC, E. coli MG1655 S83L (E. coli MG1655 S83L)
1 to 10 µg/mL: MIC [1] | MIC [3] | MIC (E. coli NCTC 13476) | MIC [10]
< 1 µg/mL: MIC [2] | MIC [5] | MIC [6] | MIC [7] | MIC [9] | MIC (E. coli ATCC BAA-2452) | MIC (E. coli MG1655)
10 to 100 µg/mL: IC50 [8]

N#Cc1ccc2ccc(=O)n(CCCN[C@@H]3CC[C@@H]4[C@@H](C3)OC(=O)N4c3ccc4c(n3)NC(=O)CO4)c2c1 [Compound 74, 1-(3-{[(3aR,6R,7aR)-2-oxo-3-{3-oxo-2H,3H,4H-pyrido[3,2-b][1,4]oxazin-6-yl}-octahydro-1,3-benzoxazol-6-yl]amino}propyl)-2-oxo-1,2-dihydroquinoline-7-carbonitrile]
< 1 µg/mL: MIC [1] | MIC [2] | MIC [3] | MIC [5] | MIC [6] | MIC [7] | MIC [9] | MIC (E. coli ATCC BAA-2452) | MIC (E. coli NCTC 13476) | MIC [10] | MIC (E. coli MG1655)
1 fold: Fold increase in MIC, E. coli MG1655 D87G (E. coli MG1655 D87G) | Fold increase in MIC, E. coli MG1655 S83L (E. coli MG1655 S83L)
10 to 100 µg/mL: IC50 [8]

COc1ccc2ccc(=O)n(CCCN[C@H]3CC[C@H]4[C@H](C3)OC(=O)N4c3ccc4c(n3)NC(=O)CS4)c2n1 [Compound 85, 1-(3-{[(3aS,6S,7aS)-2-oxo-3-{3-oxo-2H,3H,4H-pyrido[3,2-b][1,4]thiazin-6-yl}-octahydro-1,3-benzoxazol-6-yl]amino}propyl)-7-methoxy-1,2-dihydro-1,8-naphthyridin-2-one]
10 to 100 µg/mL: IC50 [8]
1 to 10 µg/mL: MIC [3]
1 fold: Fold increase in MIC, E. coli MG1655 D87G (E. coli MG1655 D87G) | Fold increase in MIC, E. coli MG1655 S83L (E. coli MG1655 S83L)
< 1 µg/mL: MIC [1] | MIC [2] | MIC [5] | MIC [6] | MIC [7] | MIC [9] | MIC (E. coli ATCC BAA-2452) | MIC (E. coli NCTC 13476) | MIC [10] | MIC (E. coli MG1655)

O=C1COc2ccc(N3C(=O)O[C@@H]4C[C@H](NCCCn5c(=O)cnc6cc(F)c(F)cc65)CC[C@H]43)nc2N1 [Compound 88, 1-(3-{[(3aR,6R,7aR)-2-oxo-3-{3-oxo-2H,3H,4H-pyrido[3,2-b][1,4]oxazin-6-yl}-octahydro-1,3-benzoxazol-6-yl]amino}propyl)-6,7-difluoro-1,2-dihydroquinoxalin-2-one]
2 fold: Fold increase in MIC, E. coli MG1655 S83L (E. coli MG1655 S83L)
1 fold: Fold increase in MIC, E. coli MG1655 D87G (E. coli MG1655 D87G)
10 to 100 µg/mL: IC50 [8]
1 to 10 µg/mL: MIC [3]
< 1 µg/mL: MIC [1] | MIC [2] | MIC [5] | MIC [6] | MIC [7] | MIC [9] | MIC (E. coli ATCC BAA-2452) | MIC (E. coli NCTC 13476) | MIC [10] | MIC (E. coli MG1655)

O=C1COc2ccc(N3C(=O)O[C@H]4C[C@@H](NCCCn5c(=O)cnc6cc(F)c(F)cc65)CC[C@@H]43)nc2N1 [Compound 90, 1-(3-{[(3aS,6S,7aS)-2-oxo-3-{3-oxo-2H,3H,4H-pyrido[3,2-b][1,4]oxazin-6-yl}-octahydro-1,3-benzoxazol-6-yl]amino}propyl)-6,7-difluoro-1,2-dihydroquinoxalin-2-one]
4 fold: Fold increase in MIC, E. coli MG1655 D87G (E. coli MG1655 D87G)
2 fold: Fold increase in MIC, E. coli MG1655 S83L (E. coli MG1655 S83L)
10 to 100 µg/mL: IC50 [8]
< 1 µg/mL: MIC [1] | MIC [2] | MIC [5] | MIC [6] | MIC [7] | MIC [9] | MIC (E. coli ATCC BAA-2452) | MIC (E. coli NCTC 13476) | MIC [10] | MIC (E. coli MG1655)
1 to 10 µg/mL: MIC [3]

O=C1COc2ccc(N3C(=O)O[C@H]4C[C@@H](NCCCn5c(=O)cnc6ccc(F)cc65)CC[C@@H]43)nc2N1 [Compound 92, 1-(3-{[(3aS,6S,7aS)-2-oxo-3-{3-oxo-2H,3H,4H-pyrido[3,2-b][1,4]oxazin-6-yl}-octahydro-1,3-benzoxazol-6-yl]amino}propyl)-7-fluoro-1,2-dihydroquinoxalin-2-one]
< 1 µg/mL: MIC [1] | MIC [2] | MIC [3] | MIC [5] | MIC [6] | MIC [7] | MIC [9] | MIC (E. coli ATCC BAA-2452) | MIC (E. coli NCTC 13476) | MIC [10] | MIC (E. coli MG1655)
1 fold: Fold increase in MIC, E. coli MG1655 D87G (E. coli MG1655 D87G) | Fold increase in MIC, E. coli MG1655 S83L (E. coli MG1655 S83L)
> 100 µg/mL: IC50 [8]

O=C1COc2ccc(N3C(=O)O[C@H]4C[C@@H](NCCCn5c(=O)ccc6ncc(OC(F)F)cc65)CC[C@@H]43)nc2N1 [Compound 93, 1-(3-{[(3aS,6S,7aS)-2-oxo-3-{3-oxo-2H,3H,4H-pyrido[3,2-b][1,4]oxazin-6-yl}-octahydro-1,3-benzoxazol-6-yl]amino}propyl)-7-(difluoromethoxy)-1,2-dihydro-1,5-naphthyridin-2-one]
< 1 µg/mL: MIC [2] | MIC [3] | MIC [5] | MIC [6] | MIC [7] | MIC [9] | MIC (E. coli ATCC BAA-2452) | MIC (E. coli NCTC 13476) | MIC [10] | MIC (E. coli MG1655)
> 100 µg/mL: IC50 [8]
1 fold: Fold increase in MIC, E. coli MG1655 D87G (E. coli MG1655 D87G) | Fold increase in MIC, E. coli MG1655 S83L (E. coli MG1655 S83L)
1 to 10 µg/mL: MIC [1]

COc1cnc2ccc(=O)n(CCCN[C@H]3CC[C@H]4[C@H](C3)OC(=O)N4c3ccc4c(n3)NC(=O)CO4)c2c1 [Compound 99, 1-(3-{[(3aS,6S,7aS)-2-oxo-3-{3-oxo-2H,3H,4H-pyrido[3,2-b][1,4]oxazin-6-yl}-octahydro-1,3-benzoxazol-6-yl]amino}propyl)-7-methoxy-1,2-dihydro-1,5-naphthyridin-2-one]
< 1 µg/mL: MIC [5] | MIC [6] | MIC [7] | MIC [9] | MIC (E. coli ATCC BAA-2452) | MIC (E. coli NCTC 13476) | MIC [10] | MIC (E. coli MG1655)
0.5 fold: Fold increase in MIC, E. coli MG1655 S83L (E. coli MG1655 S83L)
1 to 10 µg/mL: MIC [1] | MIC [2] | MIC [3]
10 to 100 µg/mL: IC50 [8]
1 fold: Fold increase in MIC, E. coli MG1655 D87G (E. coli MG1655 D87G)

O=C1COc2ccc(N3C(=O)O[C@H]4C[C@@H](NCCn5c(=O)ccc6nccnc65)CC[C@@H]43)nc2N1 [Compound 100, (3aS,6S,7aS)-3-{3-oxo-2H,3H,4H-pyrido[3,2-b][1,4]oxazin-6-yl}-6-[(2-{6-oxo-5H,6H-pyrido[2,3-b]pyrazin-5-yl}ethyl)amino]-octahydro-1,3-benzoxazol-2-one]
1 to 10 µg/mL: MIC [1] | MIC [2] | MIC (E. coli ATCC BAA-2452) | MIC (E. coli NCTC 13476)
< 1 µg/mL: MIC [5] | MIC [6] | MIC [7] | MIC [9] | MIC [10] | MIC (E. coli MG1655)
1 fold: Fold increase in MIC, E. coli MG1655 D87G (E. coli MG1655 D87G) | Fold increase in MIC, E. coli MG1655 S83L (E. coli MG1655 S83L)
10 to 100 µg/mL: MIC [3]
> 100 µg/mL: IC50 [8]
